From patent publication US9642839B2, “Substance having tyrosine kinase inhibitory activity and preparation method and use thereof” (Institute of Radiation Medicine, China Academy of Military …, priority 2013, dated 2017)

Tests used:
c-Met = conditions: MHCC97-H cells, 2 μM versus 1 μM SU11274
Protocol: The medium was changed once every 1-2 days. […] The supernatant was discarded, and fresh medium was added for subculture.
SU11274 (purchased from Sigma) is a specific c-Met kinase inhibitor which may block activation of c-Met. […] After incubation with the compounds for 2 h, the cells were harvested and total protein was extracted. Western blot assay was carried out with c-Met phosphorylated and non-phosphorylated antibodies, ERK phosphorylated and non-phosphorylated antibodies, Akt phosphorylated and non-phosphorylated antibodies (all purchased from Cell Signaling), and GAPDH antibody (purchased from Santa Cruz).

TrkA = TrkA (Homo sapiens, UniProt P04629); test: Western blot, NGF-induced TrkA phosphorylation and signaling pathway in SK-N-SH cells; format: cell-based; conditions: 0.05-1.0 μM, 500 ng/mL NGF
TrkA, sequence (P04629 33-796, species assumed): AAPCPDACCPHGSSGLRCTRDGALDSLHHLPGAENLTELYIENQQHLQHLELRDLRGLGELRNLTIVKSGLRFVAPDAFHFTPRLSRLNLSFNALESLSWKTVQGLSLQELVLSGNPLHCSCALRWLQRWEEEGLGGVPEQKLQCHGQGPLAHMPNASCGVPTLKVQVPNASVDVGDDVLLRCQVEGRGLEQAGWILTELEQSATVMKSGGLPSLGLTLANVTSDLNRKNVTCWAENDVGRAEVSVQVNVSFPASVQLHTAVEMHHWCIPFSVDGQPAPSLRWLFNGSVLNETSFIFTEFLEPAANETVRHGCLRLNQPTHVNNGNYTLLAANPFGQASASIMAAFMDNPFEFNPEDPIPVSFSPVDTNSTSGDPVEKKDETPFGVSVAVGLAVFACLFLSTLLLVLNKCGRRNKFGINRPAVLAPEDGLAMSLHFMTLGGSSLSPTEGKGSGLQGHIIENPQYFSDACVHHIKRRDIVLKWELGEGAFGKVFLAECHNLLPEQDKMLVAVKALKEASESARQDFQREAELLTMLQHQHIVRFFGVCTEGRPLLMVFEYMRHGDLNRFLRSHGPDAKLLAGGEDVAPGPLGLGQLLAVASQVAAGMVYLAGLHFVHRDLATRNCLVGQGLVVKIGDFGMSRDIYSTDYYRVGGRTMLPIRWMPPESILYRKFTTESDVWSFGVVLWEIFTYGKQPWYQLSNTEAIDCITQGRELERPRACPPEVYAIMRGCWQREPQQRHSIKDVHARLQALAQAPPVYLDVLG
Protocol: The medium was changed once every 1-2 days. […] 500 ng/mL NGF or 200 ng/ml BDNF (if not added, marked as “-”) were added to stimulate the cells for 5 min. After cell lysis, total protein was extracted. Western blot assay was carried out with TrkA phosphorylated and non-phosphorylated (p-TrkA) antibodies, TrkB phosphorylated and non-phosphorylated (p-TrkB) antibodies, ERK phosphorylated and non-phosphorylated (p-ERK) antibodies, Akt phosphorylated and non-phosphorylated (p-Akt) antibodies, and GAPDH antibody.

K562 cells = test: In vitro antitumor activity, MTS cell proliferation; format: cell-based; conditions: Homo sapiens, K562, leukemia, 72 hours
Protocol: (§1) Method: 14 cell lines (MKN-45 cells, MHCC97-L cells, MHCC97-H cells, HLE cells, HepG2 cells, 7721 cells, L02 cells, A375 cells, H460 cells, A549 cells, SK-N-SH cells, MCF-7 cells, K562 cells, and Ba/F3-Tpr-Met cells (pre-B cells which are malignantly transformed by the c-Met constitutive active mutant Tpr-Met) were seeded into 96-well plate at 1×10^4 cells/well, and each well was added with 150 μl DMEM medium (purchased from Invitrogen) containing 10% fetal bovine serum (purchased from Hyclone). When cell adherent was observed, different concentrations of 2-indolone derivatives (concentrations at 0.1-10 μM) were added, in addition to the negative control (vehicle control group) and blank control (medium group). After culture at 37° C., 5% CO2 for 72 hours, MTS reagent (Promega Corporation) were added for further culture for 2-4 h.

HLE cells = test: as above; format: cell-based; conditions: Homo sapiens, hepatocellular cancer, 72 hours
Protocol: as §1

Ba/F3-Tpr-Met cells = test: as above; format: cell-based; conditions: pre-B cell, 72 hours
Protocol: as §1

A375 cells = test: as above; format: cell-based; conditions: Homo sapiens, A-375, A375, skin cancer, 72 hours
Protocol: as §1

HepG2 cells = test: as above; format: cell-based; conditions: Homo sapiens, HepG2, hepatocellular cancer, 72 hours
Protocol: as §1

MCF-7 cells = test: as above; format: cell-based; conditions: Homo sapiens, MCF7, MCF-7, breast cancer, 72 hours
Protocol: as §1

MKN-45 cells = test: as above; format: cell-based; conditions: Homo sapiens, MKN-45, gastric cancer, 72 hours
Protocol: as §1

SK-N-SH cells = test: as above; format: cell-based; conditions: Homo sapiens, neuroblastoma, 72 hours
Protocol: as §1

H460 cells = test: as above; format: cell-based; conditions: Homo sapiens, NCI-H460, H460, lung cancer, 72 hours
Protocol: as §1

MHCC97-L cells = test: as above; format: cell-based; conditions: MHCC97L, hepatocellular cancer, 72 hours
Protocol: as §1

With `Cc1ccccc1NS(=O)(=O)c1ccc2c(c1)/C(=C/c1nc3ccccc3[nH]1)C(=O)N2` [Indo 5, 3-(1H-benzimidazol-2-methylene)-5-(2-methylphenylaminosulfo)-2-indolone] the “Inhibitory effect on c-Met phosphorylation versus positive control” value (c-Met) was “comparable to the positive control SU11274”, the “Phosphorylation of TrkA and downstream ERK” value (TrkA) was “significantly inhibited” and the IC50 (K562 cells) was 2580 nM. The IC50 (HLE cells) was 5230 nM, the IC50 (Ba/F3-Tpr-Met cells) was 4790 nM and the IC50 (A375 cells) was 1870 nM. The IC50 (HepG2 cells) was 5660 nM, the IC50 (MCF-7 cells) was 1280 nM and the IC50 (MKN-45 cells) was 1550 nM. It also gave an IC50 (SK-N-SH cells) of 1190 nM, an IC50 (H460 cells) of 1070 nM and an IC50 (MHCC97-L cells) of 1210 nM.
